SMILES strings stand for the structures.

human NAMPT, sequence (P43490 whole entry): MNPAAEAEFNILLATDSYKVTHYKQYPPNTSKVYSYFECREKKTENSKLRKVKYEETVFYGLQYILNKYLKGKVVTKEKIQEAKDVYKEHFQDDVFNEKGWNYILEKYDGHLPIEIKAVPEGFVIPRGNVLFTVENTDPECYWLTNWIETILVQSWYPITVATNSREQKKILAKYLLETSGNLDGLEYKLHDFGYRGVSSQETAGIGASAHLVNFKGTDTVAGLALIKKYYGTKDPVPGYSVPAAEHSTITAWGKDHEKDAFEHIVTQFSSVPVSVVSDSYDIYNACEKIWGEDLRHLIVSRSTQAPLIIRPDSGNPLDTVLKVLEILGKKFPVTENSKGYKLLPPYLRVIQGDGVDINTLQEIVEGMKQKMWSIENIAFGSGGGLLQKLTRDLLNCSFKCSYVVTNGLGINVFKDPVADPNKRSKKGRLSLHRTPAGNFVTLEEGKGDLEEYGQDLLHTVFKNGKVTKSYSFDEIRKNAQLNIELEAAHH

For the assay, the target named is human NAMPT (Homo sapiens (Human), UniProt P43490). The experiment in a line: NMN fluorescence biochemical assay (human recombinant NAMPT enzyme assay). The protocol:
Compounds described herein were assayed for their ability to stimulate the synthesis of nicotinamide mononucleotide (NMN) by the enzyme NAMPT. The human recombinant enzyme assay measures the activation of the enzyme activity by compounds using recombinant enzyme and substrates in a buffered cell-free system. The assay conditions closely mimic cellular environments. Dose responses were measured using an assay to detect the formation of nicotinamide mono-nucleotide. All experiments were performed in the 384-well format. Generally, 0.5 μL of DMSO containing varying concentrations of the test compound was mixed with 10 μL of the enzyme reagent solution. Enzyme reactions were initiated with the addition of […] containing the substrates. The final assay conditions were as follows: 6 nM human NAMPT, 2.5 mM ATP, 20 μM PRPP and 150 μM nicotinamide in 50 mM HEPES, pH 7.2, 1 mM DTT, 1 mM CHAPS 50 mM NaCl, 100 mM MgCl2. Following an incubation of 60 min at ambient temperature, 10 μL of 20% acetophenone in DMSO was added, followed by 10 μL of 2 M KOH and 40 μL of formic acid. The plates were read for fluorescence (Excitation/Emission=355 nm/460 nm) using an EnVision plate reader after 40 mins of incubation at ambient temperature.
By EC50 is commonly meant the concentration at which the effect is half-maximal. With `CS(=O)(=O)N1CCC2(CC(c3ccc(NC(=O)OCc4cnco4)cc3F)C2)C1` (single isomer, unassigned) [Compound 359], the “AC1.4 Human” value is 0.104 µM and the EC50 is 3.5 µM.

For the compound `CS(=O)(=O)N1CCC2(CC(c3ccc(NC(=O)OCc4cnco4)cc3F)C2)C1` (single isomer, unassigned) [Compound 360], the “AC1.4 Human” value came to 0.07 µM and the EC50 was found to be 2.33 µM.

As to `CC(C)C(=O)N1CCC2(CC(c3ccc(NC(=O)OCc4cnco4)cc3F)C2)C1` (single isomer, unassigned) [Compound 361], the “AC1.4 Human” value is 0.08 µM and the EC50 came to 10.8 µM.

With `CC(C)C(=O)N1CCC2(CC(c3ccc(NC(=O)OCc4cnco4)cc3F)C2)C1` (single isomer, unassigned) [Compound 362], the “AC1.4 Human” value is 0.05 µM and the EC50 turned out to be 4.6 µM.

Take `CN(C)C(=O)N1CCC2(CC(c3ccc(NC(=O)OCc4cnco4)cc3F)C2)C1` (single isomer, unassigned) [Compound 363]: the “AC1.4 Human” value turned out to be 0.03 µM and the EC50 was found to be 4.49 µM.

In the case of `CN(C)C(=O)N1CCC2(CC(c3ccc(NC(=O)OCc4cnco4)cc3F)C2)C1` (single isomer, unassigned) [Compound 364], the “AC1.4 Human” value turned out to be 0.07 µM and the EC50 amounted to 3.97 µM.

Turning to `CC(=O)N1CCC2(CC(c3ccc(NC(=O)OCc4cnco4)cc3F)C2)C1` (single isomer, unassigned) [Compound 372], the “AC1.4 Human” value came out at 0.09 µM and the EC50 stood at 5.64 µM.

Regarding `CC(=O)N1CCC2(CC(c3ccc(NC(=O)OCc4cnco4)cc3F)C2)C1` (single isomer, unassigned) [Compound 373], the “AC1.4 Human” value is 0.013 µM and the EC50 amounted to 0.24 µM.

For `COc1ccc(COC(=O)Nc2ccc(CN3CCC[C@@H]3c3cccnc3)cc2)cc1` [Compound 1, (4-methoxyphenyl)methyl N-(4-{[(2R)-2-(pyridin-3-yl)pyrrolidin-1-yl]methyl}phenyl)carbamate], the “AC1.4 Human” value amounted to 0.03 µM and the EC50 worked out at 0.44 µM.

Regarding `NC(=O)c1ccc(COC(=O)Nc2ccc(CN3CCC[C@@H]3c3cccnc3)cc2)cc1` [Compound 2, (4-carbamoylphenyl)methyl N-(4-{[(2R)-2-(pyridin-3-yl)pyrrolidin-1-yl]methyl}phenyl)carbamate], the “AC1.4 Human” value came out at 0.05 µM and the EC50 came to 0.96 µM.

On to `O=C(Nc1ccc(CN2CCC[C@@H]2c2cccnc2)cc1)OCc1ccncc1` [Compound 3, pyridin-4-ylmethylN-(4-{[(2R)-2-(pyridin-3-yl)pyrrolidin-1-yl]methyl}phenyl)carbamate], for which the “AC1.4 Human” value came out at 0.05 µM and the EC50 stood at 0.31 µM.

With `CN(C)C(=O)N1CCC(c2ccc(NC(=O)OCc3cnco3)cc2)CC1` [Compound 4, oxazol-5-ylmethyl (4-(1-(dimethylcarbamoyl)piperidin-4-yl)phenyl)carbamate], the “AC1.4 Human” value is 0.06 µM and the EC50 turned out to be 21.8 µM.

In the case of `O=C(Nc1ccc(CN2CCC[C@@H]2c2cccnc2)cc1)OCc1cnco1` [Compound 6, oxazol-5-ylmethyl (R)-(4-((2-(pyridin-3-yl)pyrrolidin-1-yl)methyl)phenyl)carbamate], the “AC1.4 Human” value is 0.07 µM and the EC50 was 0.55 µM.

Consider `CC(C)C(=O)N1CCC(c2ccc(NC(=O)OCc3cnco3)cc2)CC1` [Compound 7, 1,3-oxazol-5-ylmethyl N-{4-[1-(2-methylpropanoyl)piperidin-4-yl]phenyl}carbamate], for which the “AC1.4 Human” value was found to be 0.11 µM and the EC50 is 20.8 µM.

For the compound `Cc1ccc(C(=O)NCc2ccc(NC(=O)OCc3cn[nH]c3)cc2)cn1` [Compound 9, (1H-pyrazol-4-yl)methyl (4-((6-methylnicotinamido)methyl)phenyl)carbamate], the “AC1.4 Human” value turned out to be 0.15 µM and the EC50 was found to be 16 µM.

Consider `CNS(=O)(=O)N1CCC(Cc2ccc(NC(=O)OCc3cnco3)cc2)CC1` [Compound 10, oxazol-5-ylmethyl (4-((1-(N-methylsulfamoyl)piperidin-4-yl)methyl)phenyl)carbamate], for which the “AC1.4 Human” value worked out at 0.16 µM and the EC50 was 11.2 µM.

As to `COC(=O)N1CCC(Cc2ccc(NC(=O)OCc3cnco3)cc2)CC1` [Compound 11, methyl 4-(4-(((oxazol-5-ylmethoxy)carbonyl)amino)benzyl)piperidine-1-carboxylate], the “AC1.4 Human” value came to 0.21 µM and the EC50 turned out to be 22.5 µM.

As to `Cc1nn(C)c(C(=O)N[C@@H](C)c2ccc(NC(=O)OCc3ccc(Cl)cc3)cc2)c1C` [Compound 12, (4-chlorophenyl)methyl N-{4-[(1S)-1-[(2,4,5-trimethylpyrazol-3-yl)formamido]ethyl]phenyl}carbamate], the “AC1.4 Human” value came to 0.22 µM and the EC50 stood at 0.34 µM.

Consider `O=C(Nc1ccc(CCC2CCN(C(=O)C3COC3)CC2)cc1)OCc1cnco1` [Compound 13, oxazol-5-ylmethyl (4-(2-(1-(oxetane-3-carbonyl)piperidin-4-yl)ethyl)phenyl)carbamate], for which the “AC1.4 Human” value is 0.22 µM and the EC50 was 44.7 µM.

As for `NC(=O)c1ccc(COC(=O)Nc2ccc(Cc3ccncc3)cc2)cc1` [Compound 14, 4-carbamoylbenzyl (4-(pyridin-4-ylmethyl)phenyl)carbamate], the “AC1.4 Human” value came to 0.23 µM and the EC50 is 10.7 µM.

As for `CC(=O)N1CCC(c2ccc(NC(=O)OCc3ccc(Cl)cc3)cc2)CC1` [Compound 15, (4-chlorophenyl)methyl N-[4-(1-acetylpiperidin-4-yl)phenyl]carbamate], the “AC1.4 Human” value worked out at 0.24 µM and the concentration giving a half-maximal response (EC50) was determined as 2.16 µM.

Consider `CC(=O)N1CC(OCc2ccc(NC(=O)OCc3ccc(Cl)cc3)cc2)C1` [Compound 16, 4-chlorobenzyl (4-(((1-acetylazetidin-3-yl)oxy)methyl)phenyl)carbamate], for which the “AC1.4 Human” value amounted to 0.25 µM and the EC50 was 3.5 µM.

Turning to `CNS(=O)(=O)N1CCC(Cc2ccc(NC(=O)OCc3ccc(Cl)cc3)cc2)CC1` [Compound 17, 4-chlorobenzyl (4-((1-(N-methylsulfamoyl)piperidin-4-yl)methyl)phenyl)carbamate], the “AC1.4 Human” value worked out at 0.25 µM and the EC50 came to 0.9 µM.

Consider `CS(=O)(=O)N1CCC(Cc2ccc(NC(=O)OCc3cnco3)cc2)CC1` [Compound 18, oxazol-5-ylmethyl (4-((1-(methylsulfonyl)piperidin-4-yl)methyl)phenyl)carbamate], for which the “AC1.4 Human” value was determined as 0.25 µM and the EC50 came to 16.2 µM.

Take `Cc1nn(C)c(C(=O)NCc2ccc(NC(=O)OCc3ccc(Cl)cc3)cc2)c1C` [Compound 19, (4-chlorophenyl)methyl N-(4-{[(2,4,5-trimethylpyrazol-3-yl)formamido]methyl}phenyl)carbamate]: the “AC1.4 Human” value amounted to 0.26 µM and the EC50 stood at 0.59 µM.

For the compound `C[C@H](NC(=O)c1ccnn1C1CCOCC1)c1ccc(NC(=O)OCc2ccc(Cl)cc2)cc1` [Compound 20, (4-chlorophenyl)methyl N-{4-[(1S)-1-{[2-(oxan-4-yl)pyrazol-3-yl]formamido}ethyl]phenyl}carbamate], the “AC1.4 Human” value came to 0.29 µM and the EC50 was found to be 2.57 µM.

In the case of `C[C@H](NC(=O)C1CC2(C1)CC(F)(F)C2)c1ccc(NC(=O)OCc2cnco2)cc1` [Compound 22, 1,3-oxazol-5-ylmethyl N-{4-[(1S)-1-({6,6-difluorospiro[3.3]heptan-2-yl}formamido)ethyl]phenyl}carbamate], the “AC1.4 Human” value is 0.32 µM and the concentration giving a half-maximal response (EC50) was found to be 10.1 µM.

Take `O=C(Nc1ccc(CN2CCN(c3cnccn3)CC2)cc1)OCc1ccc(Cl)cc1` [Compound 24, (4-chlorophenyl)methyl N-(4-{[4-(pyrazin-2-yl)piperazin-1-yl]methyl}phenyl)carbamate]: the “AC1.4 Human” value stood at 0.34 µM and the EC50 came to 1.88 µM.

Consider `Cc1ccc(C(=O)NCc2ccc(NC(=O)OCc3cnco3)cc2)cn1` [Compound 25, oxazol-5-ylmethyl (4-((6-methylnicotinamido)methyl)phenyl)carbamate], for which the “AC1.4 Human” value was 0.35 µM and the EC50 worked out at 7.8 µM.

On to `CC(=O)N1CCC(CCc2ccc(NC(=O)OCc3cnco3)cc2)CC1` [Compound 26, oxazol-5-ylmethyl (4-(2-(1-acetylpiperidin-4-yl)ethyl)phenyl)carbamate], for which the “AC1.4 Human” value was found to be 0.35 µM and the EC50 came to 27.5 µM.

With `CN1CCN(Cc2ccc(NC(=O)OCc3ccc(Cl)cc3)cc2)C(=O)C1` [Compound 28, 4-chlorobenzyl (4-((4-methyl-2-oxopiperazin-1-yl)methyl)phenyl)carbamate], the “AC1.4 Human” value stood at 0.36 µM and the EC50 amounted to 3.01 µM.

As for `O=C(Nc1ccc(CN2CCN(c3ccccn3)CC2)cc1)OCc1ccc(Cl)cc1` [Compound 29, (4-chlorophenyl)methyl N-(4-{[4-(pyridin-2-yl)piperazin-1-yl]methyl}phenyl)carbamate], the “AC1.4 Human” value is 0.37 µM and the EC50 came to 1.51 µM.

Take `CN(C)C(=O)N1CCC(Cc2ccc(NC(=O)OCc3cnco3)cc2)CC1` [Compound 30, oxazol-5-ylmethyl (4-((1-(dimethylcarbamoyl)piperidin-4-yl)methyl)phenyl)carbamate]: the “AC1.4 Human” value turned out to be 0.37 µM and the EC50 is 25.1 µM.

For the origin of these results see US20240279215A1 (Cytokinetics, Incorporated, priority 2022, published 2024).
